Common to all, as to format: cell-based
In one assay the test system is SW480 colon cancer cells. Briefly: Cell viability assay (CellTiter-Blue). The note with it: Homo sapiens, 96 h, four days. Here is the method: Representative compounds were screened using the following assay procedure to assess the effect on cell viability as described below.
Each compound was dissolved in DMSO as a 10 mM stock and used to prepare compound source plates. Serial dilution (1:3, 8-point dose-response curves from 10 μM to 0.0045 μM) and compound transfer was performed using the ECHO 550 (Labcyte, Sunnyvale, Calif.) into 96-well clear bottom, black-walled plates (Corning-Costar).
Approximately 2×10^3 SW480 colon cancer cells were seeded into each well and allowed to incubate in the presence or absence of compound for four days at 37° C./5% CO2. Eight replicates of DMSO-treated cells served as controls and cells treated with compound were performed in duplicate.
After incubation, 20 μL of CellTiter-Blue (Promega) was added to each well allowed to incubate for approximately 3 hours. This reagent was a buffered solution which contains resazurin, metabolically active cells were able to reduce rezarurin (blue) into resorufin (pink) which was highly fluorescent. This measured fluorescence was used as a readout for cell viability.
After incubation, the plates were read at Ex 560 nm Em 590 nm (Cytation 3, BioTek). Dose-response curves were generated and EC50 concentration values were calculated using non-linear regression curve fit in the GraphPad Prism (San Diego, Calif.) or Dotmatics' Studies Software (Bishops Stortford, UK). For EC50 of >10 μM, the percent inhibition at 10 μM is provided.

Another assay has as its system IL-6 (THP-1 cells). Put plainly: IL-6 inhibition in LPS-stimulated THP-1 cells (HTRF). The note with it: Homo sapiens; IL-6 in THP-1 cells, LPS 500 ng/mL, 22 hours. Here is the method:
Human monocyte cell line (THP-1 cells; Catalog # TIB-202, ATCC, Manassas, Va.) were cultured in Roswell Park Memorial Institute (RPMI) 1640 Medium (Catalog #21870-100, Buffalo, N.Y.) with 1% L-glutamine, 1% HEPES, 1% Sodium Pyruvate, 2% Sodium Bicarbonate supplemented with 100 units/mL penicillin, 50 μg/mL streptomycin, 2-mercaptoethanol (0.05 mM) [basal medium] and 10% fetal bovine serum (Catalog #16140089, Life Technologies, Carlsbad, Calif.) at 37° C. and 5% CO2.
THP-1 cells were cultured in basal media with 1% FBS for 24 hours before the start of the assay. Each compound was dissolved in DMSO as a 10 mM stock and used to prepare compound source plates. Serial dilution (1:3, 10-point dose-response curves starting from 10 μM) and compound transfer was performed using the ECHO 550 (Labcyte, Sunnyvale, Calif.) into 384-well white low volume assay plates (Greiner Bio-One) with appropriate DMSO backfill for a final DMSO concentration of 0.1%. THP-1 cells were plated at 5000 cells/well in the 384-well plates and incubated at 37° C. for 2 h. 500 ng/mL of LPS was added after 2 hours and cells were incubated for another 22 hours at 37° C. Plates were spun in a centrifuge for 1 minute at […] and a mixture of anti-IL6 XL665, and anti-IL6 Cryptate diluted in reconstitution buffer (Cisbio Inc.) was added to each well. Following incubation for 3 hrs at room temperature, Homogeneous Time-Resolved Fluorescence (HTRF) was measured using the Envision (Perkin Elmer) at 665 nm and […]. The ratio of fluorescence at 665 nm to 620 nm was used as a readout for IL6 quantification. All samples were processed in duplicate. Readings were normalized to DMSO treated cells and normalized activities were utilized for EC50 calculations using the dose-response log (inhibitor) vs. response-variable slope (four parameters) nonlinear regression feature available in GraphPad Prism 5.0 (or Dotmatics). For EC50 of >10 μM, the percent inhibition at 10 μM is provided.
(TR-FRET usually uses a lanthanide donor and a delayed reading to cut background.)

The subject of assay [1] is Wnt activity (Sp5-Luc reporter, SW480 colon carcinoma cells). Put plainly: Wnt activity screening assay, Sp5-Luc reporter gene in SW480 cells. To be noted: Homo sapiens; for EC50: overnight incubation. An excerpt: The screening assay for Wnt activity is described as follows. Reporter cell lines can be generated by stably transducing cancer cell lines (e.g., colon cancer) or primary cells (e.g., IEC-6 intestinal cells) with a lentiviral construct that includes a Wnt-responsive promoter driving expression of the firefly luciferase gene.
SW480 colon carcinoma cells were transduced with a lentiviral vector expressing luciferase with a human Sp5 promoter consisting of a sequence of eight TCF/LEF binding sites. SW480 cells stably expressing the Sp5-Luc reporter gene and a hygromycin resistance gene were selected by treatment with 150 μg/mL of hygromycin for 7 days. These stably transduced SW480 cells were expanded in cell culture and used for all further screening activities. Each compound was dissolved in DMSO as a 10 mM stock and used to prepare compound source plates. Serial dilution (1:3, 10-point dose-response curves starting from 10 μM) and compound transfer was performed using the ECHO 550 (Labcyte, Sunnyvale, Calif.) into 384-well white solid bottom assay plates (Greiner Bio-One) with appropriate DMSO backfill for a final DMSO concentration of 0.1%. For Sp5-Luc reporter gene assays, the cells were plated at 4,000 cells/well in 384-well plates with medium containing 1% fetal bovine serum and incubated overnight at 37° C. and 5% CO2. Following incubation, 20 μl of BrightGlo luminescence reagent (Promega) was added to each well of the 384-well assay plates. The plates were placed on an orbital shaker for 2 min and then luminescence was quantified using the Envision (Perkin Elmer) plate reader. Readings were normalized to DMSO only treated cells, and normalized activities were utilized for EC50 calculations using the dose-response log (inhibitor) vs. response-variable slope (four parameters) nonlinear regression feature available in GraphPad Prism 5.0 (or Dotmatics). For EC50 of >10 μM, the percent inhibition at 10 μM is provided.
A general note: Reporter assays use an easily measured gene product as a stand-in for the process of interest.

Assay [2] relates to primary human fibroblasts derived from IPF patients (LL29 cells) treated with TGF-β1. Briefly: Inhibition of fibrotic process, αSMA staining in TGF-β1 treated LL29 fibroblasts. To be noted: Fibroblast, 96 h, % αSMA positive LL29 cells, TGF-β1 20 ng/mL, 4 days. From the text:
Representative compounds were screened using primary human fibroblasts (derived from IPF patients) treated with TGF-β1 to determine their ability to inhibit the fibrotic process.
Primary human fibroblasts derived from IPF patients (LL29 cells) [^1Xiaoqiu Liu, et. al., “Fibrotic Lung Fibroblasts Show Blunted Inhibition by cAMP Due to Deficient cAMP Response Element-Binding Protein Phosphorylation”, Journal of Pharmacology and Experimental Therapeutics (2005), 315(2), 678-687; ^2Watts, K. L., et. al., “RhoA signaling modulates cyclin D1 expression in human lung fibroblasts; implications for idiopathic pulmonary fibrosis”, Respiratory Research (2006), 7(1), 88] were obtained from American Type Culture Collection (ATCC) and expanded in F12 medium supplemented with 15% Fetal Bovine Serum and Penicillin/Streptomycin.
Each compound was dissolved in DMSO as a 10 mM stock and used to prepare compound source plates. Serial dilution (1:2, 11-point dose-response curves from 10 μM to 1.87 nM) and compound transfer was performed using the ECHO 550 (Labcyte, Sunnyvale, Calif.) into 384-well clear bottom assay plates (Greiner Bio-One) with appropriate DMSO backfill for a final DMSO concentration of 0.1%. LL29 cells are plated at 1,500 cells/well in 80 μL/well F12 medium supplemented with 1% Fetal Bovine Serum. One hour after addition of the cells, TGF-β1 (Peprotech; 20 ng/mL) was added to the plates to induce fibrosis (ref. 1 and 2 above). Wells treated with TGF-β1 and containing DMSO were used as controls. Cells were incubated at 37° C. and 5% CO2 for 4 days. Following incubation for 4 days, SYTOX green nucleic acid stain (Life Technologies [Thermo Fisher Scientific]) was added to the wells at a final concentration of 1 μM and incubated at room temperature for 30 min. Cells were then fixed using 4% formaldehyde (Electron Microscopy Sciences), washed 3 times with PBS followed by blocking and permeabilization using 3% Bovine Serum Albumin (BSA; Sigma) and 0.3% Triton X-100 (Sigma) in PBS. Cells were then stained with antibody specific to α-smooth muscle actin (αSMA; Abcam) (ref. 1 and 2 above) in 3% Bovine Serum Albumin (BSA; Sigma) and 0.3% Triton X-100 (Sigma) in PBS, and incubated overnight at 4° C. Cells were then washed 3 times with PBS, followed by incubation with Alexa Flor-647 conjugated secondary antibody (Life Technologies [Thermo Fisher Scientific]) and DAPI at room temperature for 1 hour. Cells were then washed 3 times with PBS and plates were sealed for imaging. αSMA staining was imaged by excitation at 630 nm and emission at 665 nm and quantified using the Compartmental Analysis program on the CellInsight CX5 (Thermo Scientific). Dead or apoptotic cells were excluded from analysis based on positive SYTOX green staining. % of total cells positive for αSMA were counted in each well and normalized to the average of 11 wells treated with TGF-β1 on the same plate using Dotmatics' Studies Software. The normalized averages (fold change over untreated) of 3 replicate wells for each compound concentration were used to create dose-responses curves and EC50 values were calculated using non-linear regression curve fit in the Dotmatics' Studies Software. For EC50 of >10 μM, the percent inhibition at 10 μM is provided.

The term EC50 denotes the concentration at which the effect is half-maximal. A higher EC50 goes with weaker potency. In the case of `Cc1ccncc1-c1cc2c(-c3cc4c(-c5ccc(F)cc5)ccnc4[nH]3)n[nH]c2cn1` [Compound 33, 3-(4-(4-Fluorophenyl)-1H-pyrrolo[2,3-b]pyridin-2-yl)-5-(4-methylpyridin-3-yl)-1H-pyrazolo[3,4-c]pyridine], the EC50 stood at 1050 nM with SW480 colon cancer cells, 4050 nM in the assay on IL-6 (THP-1 cells), 642 nM in assay [1] and 146 nM in assay [2].

Consider `CC(C)Nc1cncc(-c2cc3c(-c4cc5c(-c6ccc(F)cc6)ccnc5[nH]4)n[nH]c3cn2)c1` [Compound 40, 5-(3-(4-(4-Fluorophenyl)-1H-pyrrolo[2,3-b]pyridin-2-yl)-1H-pyrazolo[3,4-c]pyridin-5-yl)-N-isopropylpyridin-3-amine], for which the EC50 came to 179 nM in the assay on SW480 colon cancer cells, 9380 nM in the assay with IL-6 (THP-1 cells), 223 nM in assay [1] and 43 nM in assay [2].

In the case of `CC(C)(C)CC(=O)Nc1cncc(-c2cc3c(-c4cc5c(-c6ccc(F)cc6)ccnc5[nH]4)n[nH]c3cn2)c1` [Compound 44, N-(5-(3-(4-(4-Fluorophenyl)-1H-pyrrolo[2,3-b]pyridin-2-yl)-1H-pyrazolo [3,4-c]pyridin-5-yl)pyridin-3-yl)-3,3-dimethylbutanamide], the EC50 came out at 1160 nM in the assay on SW480 colon cancer cells, 4400 nM in the assay on IL-6 (THP-1 cells), 144 nM in assay [1] and 311 nM in assay [2].

In general, inhibition refers to how much of the control response was suppressed. Regarding `Fc1ccc(-c2ccnc3[nH]c(-c4n[nH]c5cnc(-c6cncc(CN7CCC(F)(F)C7)c6)cc45)cc23)cc1` [Compound 54, 5-(5-((3,3-Difluoropyrrolidin-1-yl)methyl)pyridin-3-yl)-3-(4-(4-fluorophenyl)-1H-pyrrolo[2,3-b]pyridin-2-yl)-1H-pyrazolo[3,4-c]pyridine], the EC50 is 1400 nM in the assay on SW480 colon cancer cells, 2050 nM in the assay on IL-6 (THP-1 cells), over 10000 nM in assay [1] and 1110 nM in assay [2]. For the same molecule, the inhibition at 10 µM in assay [1] (at 10 μM, given where EC50 >10 μM, read-out: percent inhibition at 10 μM) was determined as 28.1%.

Regarding `Fc1ccccc1-c1ccnc2[nH]c(-c3n[nH]c4cnc(-c5ccccn5)cc34)cc12` [Compound 84, 3-(4-(2-Fluorophenyl)-1H-pyrrolo[2,3-b]pyridin-2-yl)-5-(pyridin-2-yl)-1H-pyrazolo[3,4-c]pyridine], the EC50 came out at 411 nM in the assay on SW480 colon cancer cells, 6420 nM with IL-6 (THP-1 cells), 279 nM in assay [1] and 561 nM in assay [2].

As to `c1cncc(-c2cc3c(-c4cc5c(N6CCCCC6)ccnc5[nH]4)n[nH]c3cn2)c1` [Compound 172, 3-(4-(Piperidin-1-yl)-1H-pyrrolo[2,3-b]pyridin-2-yl)-5-(pyridin-3-yl)-1H-pyrazolo[3,4-c]pyridine], the EC50 in the assay with SW480 colon cancer cells amounted to 3540 nM; with IL-6 (THP-1 cells), 3400 nM; in assay [1], 2240 nM; in assay [2] it was 1730 nM.

`CC(C)C(=O)Nc1cncc(-c2cc3c(-c4cc5c(N6CCCCC6)ccnc5[nH]4)n[nH]c3cn2)c1` [Compound 177, N-(5-(3-(4-(Piperidin-1-yl)-1H-pyrrolo[2,3-b]pyridin-2-yl)-1H-pyrazolo[3,4-c]pyridin-5-yl)pyridin-3-yl)isobutyramide]: the EC50 with SW480 colon cancer cells stood at 1080 nM; in the assay with IL-6 (THP-1 cells), 9850 nM; in assay [1] it was 867 nM; in assay [2], 1490 nM.

As to `CC(C)Nc1cncc(-c2cc3c(-c4cc5c(N6CCCCC6)ccnc5[nH]4)n[nH]c3cn2)c1` [Compound 180, N-Isopropyl-5-(3-(4-(piperidin-1-yl)-1H-pyrrolo[2,3-b]pyridin-2-yl)-1H-pyrazolo[3,4-c]pyridin-5-yl)pyridin-3-amine], the EC50 amounted to 1540 nM with SW480 colon cancer cells, 9550 nM with IL-6 (THP-1 cells), 1630 nM in assay [1] and 2430 nM in assay [2].

Consider `CC(C)(C)CC(=O)Nc1cncc(-c2cc3c(-c4cc5c(N6CCCCC6)ccnc5[nH]4)n[nH]c3cn2)c1` [Compound 184, 3,3-Dimethyl-N-(5-(3-(4-(piperidin-1-yl)-1H-pyrrolo[2,3-b]pyridin-2-yl)-1H-pyrazolo[3,4-c]pyridin-5-yl)pyridin-3-yl)butanamide], for which the EC50 is 4300 nM in the assay with SW480 colon cancer cells, 3310 nM in the assay with IL-6 (THP-1 cells), 3240 nM in assay [1] and 1960 nM in assay [2].

Values taken from US10285982B2, “3-(1H-pyrrolo[2,3-B]pyridin-2-yl)-1H-pyrazolo[3,4-C]pyridines and therapeutic uses thereof” (Samumed, LLC, priority 2015, dated 2019).
